What was measured:
human CYP11B2 = human CYP11B2 (Homo sapiens (Human), UniProt P19099); test: G-402 cellular enzyme assay, human CYP11B2 (aldosterone release, HTRF); assay type: cell-based; settings: G-402 cells expressing human CYP11B2; 1 μM Deoxycorticosterone
Source text: (§1) Specifically we developed stable G-402 cells expressing ectopically human CYP11B1, human CYP11B2, human CYP11A1, cynomolgus CYP11B1 or cynomolgus CYP11B2 enzyme activity.
(§2) The expression plasmids contains the ORF for either human/cyno CYP11B1 or CYP11B2 under the control of a suitable promoter (CMV-promoter) and a suitable resistance marker (neomycin). Using standard techniques the expression plasmid is transfected into G-402 cells and these cells are then selected for expressing the given resistance markers. Individual cell-clones are then selected and assessed for displaying the desired enzymatic activity using 11-Deoxycorticosterone (Cyp11B2) or 11-Deoxycortisol (Cyp11B1) as a substrate.
(§3) For assaying enzymatic activity, cells were plated onto 96 well plates and incubated for 16 h. An aliquot of the supernatant is then transferred and analyzed for the concentration of the expected product (Aldosterone for CYP11B2; Cortisol for CYP11B1). The concentrations of these steroids can be determined using HTRF assays from CisBio analyzing either Aldosterone or Cortisol.
(§4) Inhibition of the release of produced steroids can be used as a measure of the respective enzyme inhibition by test compounds added during the cellular enzyme assay. The dose dependent inhibition of enzymatic activity by a compound is calculated by means of plotting added inhibitor concentrations x-axes) vs. measured steroid/product level (y-axes). The inhibition is then calculated by fitting the following 4-parameter sigmoidal function (Morgan-Mercer-Flodin (MMF) model) to the raw data points using the least squares method:
(§5) [formula] wherein, A is the maximum y value, B is the EC50 factor determined using XLFit, C is the minimum y value and D is the slope value.
(§6) EC50 values for compounds claimed herein were tested with the G402-based assay system described. Cyp11B2 enzyme activity was tested in presence of 1 μM Deoxycorticosterone and variable amounts of inhibitors; Cyp11B1 enzyme activity was tested in presence of 1 μM Deoxycortisol and variable amounts of inhibitors.

human CYP11B1 = human CYP11B1 (Homo sapiens (Human), UniProt P15538); test: G-402 cellular enzyme assay, human CYP11B1 (cortisol release, HTRF); assay type: cell-based; settings: G-402 cells expressing human CYP11B1; 1 μM Deoxycortisol
Chain of human CYP11B1 (P15538 25-503): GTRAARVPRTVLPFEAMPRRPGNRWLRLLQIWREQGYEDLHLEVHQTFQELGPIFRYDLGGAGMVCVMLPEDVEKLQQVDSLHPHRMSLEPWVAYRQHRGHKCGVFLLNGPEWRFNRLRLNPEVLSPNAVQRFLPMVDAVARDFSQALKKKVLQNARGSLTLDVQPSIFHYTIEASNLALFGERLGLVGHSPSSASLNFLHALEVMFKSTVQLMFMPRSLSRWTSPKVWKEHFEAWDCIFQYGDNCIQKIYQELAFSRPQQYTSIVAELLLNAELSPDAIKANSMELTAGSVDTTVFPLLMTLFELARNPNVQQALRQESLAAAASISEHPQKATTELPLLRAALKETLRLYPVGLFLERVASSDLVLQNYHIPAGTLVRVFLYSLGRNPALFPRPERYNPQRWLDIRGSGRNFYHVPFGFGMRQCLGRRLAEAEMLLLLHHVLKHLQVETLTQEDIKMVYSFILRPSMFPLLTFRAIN
Source text: as §1, §2, §3, §4, §5, §6

Chain of human CYP11B2 (P19099 25-503): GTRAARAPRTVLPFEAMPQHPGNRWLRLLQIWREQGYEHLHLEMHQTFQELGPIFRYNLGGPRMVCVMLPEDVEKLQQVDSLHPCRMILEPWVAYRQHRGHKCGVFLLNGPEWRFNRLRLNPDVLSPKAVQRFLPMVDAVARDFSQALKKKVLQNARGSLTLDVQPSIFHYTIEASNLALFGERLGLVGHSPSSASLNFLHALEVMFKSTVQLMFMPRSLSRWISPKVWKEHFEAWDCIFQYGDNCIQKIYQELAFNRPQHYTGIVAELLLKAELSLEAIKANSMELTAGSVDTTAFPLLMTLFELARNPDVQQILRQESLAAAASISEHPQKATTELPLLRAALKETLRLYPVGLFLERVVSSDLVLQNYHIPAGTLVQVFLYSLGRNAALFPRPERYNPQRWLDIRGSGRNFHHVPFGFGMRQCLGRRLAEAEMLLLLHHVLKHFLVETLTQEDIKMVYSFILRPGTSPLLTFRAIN

SMILES	EC50 (human CYP11B2) [nM]	EC50 (human CYP11B1) [nM]
CCC(=O)N[C@H]1c2cncc(-c3cc4c(cc3F)N(C)C(=O)CC4)c2CC[C@H]1C (single isomer, unassigned) [Example 48, (+)-N-[(7R,8R or 7S,8S)-4-(7-Fluoro-1-methyl-2-oxo-1,2,3,4-tetrahydro-quinolin-6-yl)-7-methyl-5,6,7,8-tetrahydro-isoquinolin-8-yl]-propionamide]	26.1	2880
CCC(=O)N[C@H]1c2cncc(-c3ccc4c(c3)CCC(=O)N4C)c2CC[C@H]1C (single isomer, unassigned) [Example 49, (+)-N-[(7R,8R or 7S,8S)-7-Methyl-4-(1-methyl-2-oxo-1,2,3,4-tetrahydro-quinolin-6-yl)-5,6,7,8-tetrahydro-isoquinolin-8-yl]-propionamide]	44.2	3950
CCC(=O)N[C@@H]1c2cncc(-c3ccc4c(c3)CCC(=O)N4C)c2CC[C@@H]1F (single isomer, unassigned) [Example 51, (−)-N-[(7S,8R or 7R,8S)-7-Fluoro-4-(1-methyl-2-oxo-1,2,3,4-tetrahydro-quinolin-6-yl)-5,6,7,8-tetrahydro-isoquinolin-8-yl]-propionamide]	1470	32300
CCC(=O)N[C@H]1c2cncc(-c3ccc4c(c3)CCC(=O)N4C)c2CC[C@@H]1F (single isomer, unassigned) [Example 52, (+)-N-[(7S,8S or 7R,8R)-7-Fluoro-4-(1-methyl-2-oxo-1,2,3,4-tetrahydro-quinolin-6-yl)-5,6,7,8-tetrahydro-isoquinolin-8-yl]-propionamide]	25.8	1590
CCC(=O)N[C@H]1c2cncc(-c3ccc4c(c3)CCC(=O)N4C)c2CC[C@H]1F (single isomer, unassigned) [Example 53, (+)-N-[(7R,8S or 7S,8R)-7-Fluoro-4-(1-methyl-2-oxo-1,2,3,4-tetrahydro-quinolin-6-yl)-5,6,7,8-tetrahydro-isoquinolin-8-yl]-propionamide]	122	3570
CCC(=O)N[C@H]1c2cncc(-c3cc4c(cc3F)N(C)C(=O)CC4)c2CC[C@@H]1F (single isomer, unassigned) [Example 54, (+)-N-[(7S,8S or 7R,8R)-7-Fluoro-4-(7-fluoro-1-methyl-2-oxo-1,2,3,4-tetrahydro-quinolin-6-yl)-5,6,7,8-tetrahydro-isoquinolin-8-yl]-propionamide]	38.8	2390
CCC(=O)N[C@H]1c2cncc(-c3cc4c(cc3F)N(C)C(=O)CC4)c2CC[C@H]1F (single isomer, unassigned) [Example 55, (+)-N-[(7R,8S or 7S,8R)-7-Fluoro-4-(7-fluoro-1-methyl-2-oxo-1,2,3,4-tetrahydro-quinolin-6-yl)-5,6,7,8-tetrahydro-isoquinolin-8-yl]-propionamide]	158	2760
CCC(=O)N[C@@H]1c2cncc(-c3cc4c(cc3F)N(C)C(=O)CC4)c2CC[C@H]1F (single isomer, unassigned) [Example 56, (−)-N-[(7R,8R or 7S,8S)-7-Fluoro-4-(7-fluoro-1-methyl-2-oxo-1,2,3,4-tetrahydro-quinolin-6-yl)-5,6,7,8-tetrahydro-isoquinolin-8-yl]-propionamide]	2780	14900
CCC(=O)N[C@@H]1c2cncc(-c3cc4c(cc3F)N(C)C(=O)CC4)c2CC[C@@H]1F (single isomer, unassigned) [Example 57, (−)-N-[(7S,8R or 7R,8S)-7-Fluoro-4-(7-fluoro-1-methyl-2-oxo-1,2,3,4-tetrahydro-quinolin-6-yl)-5,6,7,8-tetrahydro-isoquinolin-8-yl]-propionamide]	884	20300
CN1C(=O)CCc2cc(-c3cncc4c3CCCC4O)ccc21 (single isomer, unassigned) [Example 68, (S or R)-6-(8-Hydroxy-5,6,7,8-tetrahydro-isoquinolin-4-yl)-1-methyl-3,4-dihydroquinolin-2(1H)-one]	77.4	1620
CN1C(=O)CCc2cc(-c3cncc4c3CCCC4O)ccc21 (single isomer, unassigned) [Example 69, (R or S)-6-(8-Hydroxy-5,6,7,8-tetrahydro-isoquinolin-4-yl)-1-methyl-3,4-dihydroquinolin-2(1H)-one]	2	54.1
CCC(=O)NC1CCCc2c(-c3ccc4c(c3)CCC(=O)N4C)cncc21 (single isomer, unassigned; (+)) [Example 3, (+)-(S or R)—N-(4-(1-Methyl-2-oxo-1,2,3,4-tetrahydroquinolin-6-yl)-5,6,7,8-tetrahydroisoquinolin-8-yl)propionamide]	14	980
CCS(=O)(=O)NC1CCCc2c(-c3ccc4c(c3)CCC(=O)N4C)cncc21 (single isomer, unassigned; (+)) [Example 6, (+)-(S or R)—N-(4-(1-Methyl-2-oxo-1,2,3,4-tetrahydroquinolin-6-yl)-5,6,7,8-tetrahydroisoquinolin-8-yl)ethanesulfonamide]	48	1750
CCC(=O)NC1CCc2c(-c3ccc4c(c3)CCC(=O)N4C)cncc21 (single isomer, unassigned; (+)) [Example 9, (+)-(S or R)—N-(4-(1-Methyl-2-oxo-1,2,3,4-tetrahydroquinolin-6-yl)-6,7-dihydro-5H-cyclopenta[c]pyridin-7-yl)propionamide]	13	570
C[C@@H](O)C(=O)NC1CCCc2c(-c3ccc4c(c3)CCC(=O)N4C)cncc21 (single isomer, unassigned; (+)) [Example 18, (+)-(2R)-2-Hydroxy-N-((4R or 4S)-4-(1-methyl-2-oxo-1,2,3,4-tetrahydroquinolin-6-yl)-5,6,7,8-tetrahydroisoquinolin-8-yl)propanamide]	27.9	1490
C[C@H](O)C(=O)NC1CCCc2c(-c3ccc4c(c3)CCC(=O)N4C)cncc21 (single isomer, unassigned; (+)) [Example 21, (+)-(2S)-2-hydroxy-N-((4R or 4S)-4-(1-methyl-2-oxo-1,2,3,4-tetrahydroquinolin-6-yl)-5,6,7,8-tetrahydroisoquinolin-8-yl)propanamide]	28	598
CCC(=O)NC1CCc2c(-c3cc4c(cc3F)N(C)C(=O)CC4)cncc21 (single isomer, unassigned; (+)) [Example 24, (+)-(R or S)—N-(4-(7-Fluoro-1-methyl-2-oxo-1,2,3,4-tetrahydroquinolin-6-yl)-6,7-dihydro-5H-cyclopenta[c]pyridin-7-yl)propionamide]	3.8	466
CCS(=O)(=O)NC1CCc2c(-c3cc4c(cc3F)N(C)C(=O)CC4)cncc21 (single isomer, unassigned; (+)) [Example 27, (+)-(R or S)—N-(4-(7-Fluoro-1-methyl-2-oxo-1,2,3,4-tetrahydroquinolin-6-yl)-6,7-dihydro-5H-cyclopenta[c]pyridin-7-yl)ethanesulfonamide]	11.2	1890
CCC(=O)NC1CCCc2c(-c3cc4c(cc3F)N(C)C(=O)CC4)cncc21 (single isomer, unassigned; (+)) [Example 30, (+)-(R or S)—N-[4-(7-fluoro-1-methyl-2-oxo-1,2,3,4-tetrahydro-quinolin-6-yl)-5,6,7,8-tetrahydro-isoquinolin-8-yl]-propionamide]	30	3680
CCS(=O)(=O)NC1CCCc2c(-c3cc4c(cc3F)N(C)C(=O)CC4)cncc21 (single isomer, unassigned; (+)) [Example 32, (+)-(R or S)-Ethanesulfonic acid [4-(7-fluoro-1-methyl-2-oxo-1,2,3,4-tetrahydro-quinolin-6-yl)-5,6,7,8-tetrahydro-isoquinolin-8-yl]-amide]	78.2	4240
CCS(=O)(=O)NC1CCCc2c(-c3cc(Cl)c4c(c3)CCC(=O)N4C)cncc21 (single isomer, unassigned; (+)) [Example 38, (+)-Ethanesulfonic acid [(R or S)-4-(8-chloro-1-methyl-2-oxo-1,2,3,4-tetrahydro-quinolin-6-yl)-5,6,7,8-tetrahydro-isoquinolin-8-yl]-amide]	422	15900
CCC(=O)NC1CCCc2c(-c3cc(Cl)c4c(c3)CCC(=O)N4C)cncc21 (single isomer, unassigned; (+)) [Example 41, (+)-N—[(R or S)-4-(8-Chloro-1-methyl-2-oxo-1,2,3,4-tetrahydro-quinolin-6-yl)-5,6,7,8-tetrahydro-isoquinolin-8-yl]-propionamide]	16.6	3530

From patent publication US9353081B2, “Bicyclic dihydroquinoline-2-one derivatives” (Hoffmann-La Roche Inc., priority 2011, dated 2016)
